Source: US6057153A, “Stabilized external guide sequences” (Yale University, priority 1997, dated 2000)
Entries after “also recorded” stand apart in the source; their conditions may differ.

Columns and labels:
[1] = test system: 2.1 kb HBV RNA; assay: RNAse P cleavage of large target RNA; assay type: biochemical; settings: 250 nM EGS, 30 minutes at 37° C.
Procedure: To test cleavage with a longer target RNA molecules, different reaction conditions were used. Reactions in a total volume of 10 μl contained 40 mM Tris-HCl (pH 7.4), 10 mM MgCl2, 1 mM spermidine 10 mM dithiothreitol, 0.05 μg/μl nuclease-free bovine serum albumin, 0.01% (v/v) Triton-X100™, 0.8 Units/μl RNASIN, 0.2 mM ATP, 0.2 mM GTP, 0.2 mM UTP, 0.2 mM CTP, 0.1 μCi/μl [a^32 P] CTP, 2 mM m^7 G(5')pppG, 0.06 μg/μl yeast RNA, 25 mM KCl, 3 Units T7 RNA polymerase, 250 nM EGS, 1 μl of human RNAse P and 3 ng/μl linearized plasmid. Reactions were initiated by the addition of linearized plasmid and incubated for 30 minutes at 37° C. Reactions were terminated by the addition of 10 μl of 80% formaemide, 10 mM EDTA, 0.1% bromphenol blue. After heating for 2 minutes at 90° C., samples were electrophoresed for 2 hours at 48 watts on a 5% denaturing polyacrylamide gel. After vacuum drying for 1 hour at 60° C., the gel was analyzed by phosphoimaging.
Cleavage of Large Target RNA: Plasmid pAYW2.1, containing the sequence that encodes the 2.1 kb RNA of the AYW strain of HBV, was linearized by digestion with Not I, and then transcribed by T7 RNA polymerase in the presence of [α^32 P]CTP. Labeled transcripts were incubated for 30 minutes at 37° C. with RNase P in the presence of various EGS molecules. Reaction products were subjected to denaturing polyacrylamide gel electrophoresis, and analyzed by phosphoimaging. EGS-mediated cleavage at the targeted site of the 2.1 kb transcript produces cleavage products that are approximately 1.7 and 0.4 kb in length.

[2] = test system: short substrate (SEQ ID NO. 1) derived from the full-length pre-genomic HBV RNA; assay: RNAse P cleavage assay, short substrate; assay type: biochemical; settings: short substrate, EGS 200 nM, 37° C., 1 hour
Procedure: RNAse P Cleavage Assays: Cleavage reactions were carried out generally according to the procedure described by Yuan et al., Proc. Natl. Acad. Sci., USA, 89:8006-8010, (1992), which is hereby incorporated by reference. Briefly, short substrate reactions were made up to a total volume of 31μ in 50 mM Tris-HCl pH 7.4, 10 mM MgCl2, 25 mM KCl, 0.1 mM EDTA, […] at 37° C. for 1 hour. After incubation, the reaction solution was mixed with loading buffer (98% formamide, 10 mM EDTA, 0.025% bromophenol blue). The cleaved substrate was separated from the uncleaved by electrophoresis on a 15% acrylamide gel containing 7 M urea. The bands were quantified on a Molecular Dynamics PHOSPHORIMAGER™.
The bands corresponding to the precursor RNA substrate and the resulting two cleavage products were counted from the dried gel using a BETASCOPE™ gel analyzer (Betagen).
RNAse P was purified by DEAE SEPHAROSE™ chromatography and glycerol density gradient centrifugation essentially as described by Bartkiewicz et al., Genes Dev. 3:488-499 (1989), which is hereby incorporated by reference.
The percentage of precursor RNA substrate remaining in either assay was plotted as function of the EGS concentration and the catalytic efficiency expressed as kcat /Km (where kcat is the rate constant of cleavage and Km is the Michaelis constant), the second order rate constant for the reaction of free EGS and substrate. Following the methods of Heidenreich and Eckstein (J. Biol. Chem., 267:1904-1909 (1992), the efficiency of the cleavage reaction, kcat /Km), was determined using the formula
The EGS constructs described in Example 2 were assayed using the RNAse P cleavage assays described in Example 1 to determine the efficiency of the cleavage reaction. FIG. 1 depicts the model system using a short substrate which was used to evaluate the ability of modified EGS molecules in inducing RNase P-mediated target cleavage. The sequence of the short substrate (SEQ ID NO. 1) was derived from the full-length pre-genomic HBV RNA.

[3] = Nuclease resistance studies in 50% human serum; assay type: in vitro ADME; settings: 37° C., experiment of 2 h
Procedure: Nuclease resistance studies--100 μl of EGS oligonucleotides (5 μM), containing a trace of 5'-end-labeled oligomers, were incubated at 37° C. for different time periods (0-24 h) with 50% human serum (Sigma, S-7023). 20 μl aliquots were diluted to 100 μl with RNase-free water, phenol/chlorform extracted, and ethanol precipitated. The residue was resuspended in 10 μl of TE and 10 μl of 2× gel loading buffer containing 98% formamide, 10 mM1 EDTA and 0.1% bromophenol blue. The mixture was heated to 85° C. for 1 min, quickly cooled on ice and frozen at -20° C. prior to electrophoresis on 15% polyacrylamide/8 M urea gels. Gels were subsequently scanned on a Molecular Dynamics PHOSPHORIMAGER™, and the stability profile for each, oligomer was estimated from the ratio of the remaining intact materials versus all radio-labeled materials (intact oligomers plus degradation products). Stability studies of non radio-labeled EGS oligomers using capillary gel electrophoresis were also carried out according to the method of Leeds et al. (15).

[4] = test system: Substrate RNA (SUB-156); assay: RNase P-mediated cleavage assay, single turnover conditions; assay type: biochemical, hepatitis B virus (HBV); settings: 200 nM EGS, 20 nM substrate, saturating RNase P, 60 min
Procedure: RNase P-mediated cleavage assay--Human RNase P was purified from HeLa cells according to the published procedures (14). Substrate RNA (SUB-156, FIG. 24) was 5'-end labeled using T4 polynucleotide kinase and [γ-^32P]ATP. The labeling mixture was then heated to 85° C. for 1 min, diluted with RNase-free water, and purified by a MICROSPIN™ G-25 column (Pharmacia) according to the manufacturer's instructions. Cleavage reactions were conducted in a reaction buffer containing 50 mM Tris-HCl (pH 7.4), 25 mM KCl, 10 mM MgCl2 and 0.1 mM EDTA. EGS oligomers and ^32 p-5'-end-labeled RNA substrate were heated in the reaction buffer without MgCl2 to 85° C. for 1 min and then slowly cooled to room temperature. The cleavage reaction was initiated by adding 2 μl of 100 mM MgCl2 and 3 μl of RNase P (enzyme activity for this preparation: cleavage of 0.035 pmol of tRNA^Tyr precursor min^-1 μl^-1). The final reaction volume was 20 μl and the reaction was incubated at 37° C. for 60 min. […] For each sample, cleavage reactions were performed in duplicates and the average values were used. To ensure reproducibility, cleavage assays for each EGS were also repeated in two separate experiments. The all-RNA EGS-159 was used as the reference sample and its cleavage values were counted as 100%. Cleavage percentages of all other EGSs were normalized against EGS-159 (Rel. Cleavage %) except in FIG. 30 and FIG. 31 where absolute cleavage percentages (Abs. Cleavage %) were plotted.
For EGS-single turnover conditions, the final concentrations were 200 nM for EGS and 20(nM for the RNA substrate. For EGS-multiple turnover conditions, the final concentrations were 200 nM for the RNA substrate and 40 nM for EGS. When determination of the time-course was required, the reaction volume was increased to 40 μl. Aliquots of 5-8 μl were removed from the reaction mixture at different time points (e.g. 1, 5, 15, 30 and 60 min), quenched in formamide loading buffer, and loaded onto 15% polyacrylamide/8 M urea gels. Quantitation of the cleavage product and the remaining RNA substrate was achieved using a Molecular Dynamics PHOSPHORIMAGER™.
General considerations--To select lead nuclease-resistant oligonucleotide prototypes as external guide sequences among many possible modifications, a reliable yet rapid in vitro cleavage assay for routine screening was used. Human RNase P, a ribonucleoprotein, is composed of a 340-nt H1 RNA component and one or more proteins (for recent review, see Ref. 16). A 3-step screening strategy was devised: 1) All analogues once synthesized were tested by a fast qualitative cleavage assay under single turnover conditions with 10-fold excess of EGS over target RNA substrate for 60 min. […] This was the best cleavage condition used in this study. Any analogue with a reasonable activity (e.g. more than 5% cleavage) would not be missed, under these circumstances, due to the high detection sensitivity provided by PHOSPHORIMAGER™. 2) Promising analogues were then assayed for stability in 50% human serum.

Substance | RNase P-mediated cleavage activity compared to the all-RNA control [4] | other results
INNO-149: SEQ ID NO. 3, 2'-O-methyl arms and T stem, phosphorothioate T loop, 3'-amino group (CGAUGAAGGUUCGAAUCCUUCCCAGGAC; 2'-O-methyl, phosphorothioate T loop, 3'-amino, chemistry not fully specified) |  | RNase P-mediated cleavage of 2.1 kb HBV RNA [1]: capable of inducing RNase P-mediated cleavage; also recorded: mostly cleaved; RNase P-mediated cleavage of 2.1 kb HBV RNA ([1]; listed as analogue 149): more effective than analogue 155
INNO-126: SEQ ID NO. 2, 2'-O-methyl arms, variable loop, T stem and third 5'-C of T loop (CGAUACGGAAGGUUCGAAUCCUUCCCAGGAC; 2'-O-methyl modifications, chemistry not fully specified) |  | efficiency of RNase P-mediated target cleavage relative to the wild-type EGS [2]: most pronounced decrease in cleavage efficiency
EGS-364: EGS-356 with disrupted T-stem, SEQ ID NO. 34 (guide AGAUGAUACACUGUUCGAAUGGUACACGCCGCN; chemistry not given here) |  | stability in 50% human serum [3]: did not change the results
EGS H62: all-RNA EGS, SEQ ID NO. 3, prepared by T7 RNA polymerase transcription (guide CGAUGAAGGUUCGAAUCCUUCCCAGGAC; unmodified RNA) |  | RNase P-mediated cleavage of 2.1 kb HBV RNA [1]: Complete cleavage
INNO-124: SEQ ID NO. 2, 2'-O-methyl arms, variable loop, T stem and first 5'-U of T loop (CGAUACGGAAGGUUCGAAUCCUUCCCAGGAC; 2'-O-methyl modifications, chemistry not fully specified) |  | efficiency of RNase P-mediated target cleavage relative to the wild-type EGS [2]: most pronounced decrease in cleavage efficiency
EGS-380: C56 in the T-loop substituted with rA, SEQ ID NO. 40 (guide AGAUGAUAGAAGGUUAGAAUCCUUCACGCCGC; Riboadenosine at tRNA position 56 of T-loop, rest of chemistry not given here) | effectively substituted | 
EGS-404: no RNA residues, remaining riboadenosines replaced by deoxynucleotides, SEQ ID NO. 48 (AGAUGAUAGAAGGAUAGAAUCCUUCACGCCGC; guide RNA; No RNA residues, remaining riboadenosines replaced by deoxynucleotides, other modifications not given here) | Significant reduction in activity | 
EGS-381: C56 in the T-loop substituted with rG, SEQ ID NO. 41 (guide AGAUGAUAGAAGGUUGGAAUCCUUCACGCCGC; Riboguanosine at tRNA position 56 of T-loop, rest of chemistry not given here) | effectively substituted | 
EGS-400: no RNA residues, remaining riboadenosines replaced by deoxynucleotides, SEQ ID NO. 47 (AGAUGAUAGAAGGUUAGAAUCCUUCACGCCGC; guide RNA; No RNA residues, remaining riboadenosines replaced by deoxynucleotides, other modifications not given here) | Significant reduction in activity | 
EGS-406: no RNA residues, remaining riboadenosines replaced by deoxynucleotides, SEQ ID NO. 50 (AGAUGAUAGAAGGUUAGAAUCCUUCACGCCGC; guide RNA; No RNA residues, remaining riboadenosines replaced by deoxynucleotides, other modifications not given here) | Significant reduction in activity | 
EGS-405: no RNA residues, remaining riboadenosines replaced by deoxynucleotides, SEQ ID NO. 49 (AGAUGAUAGAAGGTUAGAAUCCUUCACGCCGC; guide RNA; No RNA residues, remaining riboadenosines replaced by deoxynucleotides, other modifications not given here) | Significant reduction in activity | 
